pIC50: −log10 of the molar value.
Assays:
[1] = biological target: Macrophage colony-stimulating factor 1 receptor (Homo sapiens, UniProt P07333); test: Displacement of kinase tracer 236 from recombinant human His-tagged CSF1R cytoplasmic domain (538 to 910 residues) expressed in baculovirus-infected insect cells measured after 5 hrs by TR-FRET based LanthaScreen assay
[2] = biological target: Vascular endothelial growth factor receptor 2 (Homo sapiens, UniProt P35968); test: Displacement of kinase tracer 236 from recombinant human His-tagged KDR cytoplasmic domain (789 to 1356 residues) expressed in baculovirus-infected insect cells measured after 5 hrs by TR-FRET based LanthaScreen assay
Vascular endothelial growth factor receptor 2, sequence (P35968 whole entry, the tested form may be a part): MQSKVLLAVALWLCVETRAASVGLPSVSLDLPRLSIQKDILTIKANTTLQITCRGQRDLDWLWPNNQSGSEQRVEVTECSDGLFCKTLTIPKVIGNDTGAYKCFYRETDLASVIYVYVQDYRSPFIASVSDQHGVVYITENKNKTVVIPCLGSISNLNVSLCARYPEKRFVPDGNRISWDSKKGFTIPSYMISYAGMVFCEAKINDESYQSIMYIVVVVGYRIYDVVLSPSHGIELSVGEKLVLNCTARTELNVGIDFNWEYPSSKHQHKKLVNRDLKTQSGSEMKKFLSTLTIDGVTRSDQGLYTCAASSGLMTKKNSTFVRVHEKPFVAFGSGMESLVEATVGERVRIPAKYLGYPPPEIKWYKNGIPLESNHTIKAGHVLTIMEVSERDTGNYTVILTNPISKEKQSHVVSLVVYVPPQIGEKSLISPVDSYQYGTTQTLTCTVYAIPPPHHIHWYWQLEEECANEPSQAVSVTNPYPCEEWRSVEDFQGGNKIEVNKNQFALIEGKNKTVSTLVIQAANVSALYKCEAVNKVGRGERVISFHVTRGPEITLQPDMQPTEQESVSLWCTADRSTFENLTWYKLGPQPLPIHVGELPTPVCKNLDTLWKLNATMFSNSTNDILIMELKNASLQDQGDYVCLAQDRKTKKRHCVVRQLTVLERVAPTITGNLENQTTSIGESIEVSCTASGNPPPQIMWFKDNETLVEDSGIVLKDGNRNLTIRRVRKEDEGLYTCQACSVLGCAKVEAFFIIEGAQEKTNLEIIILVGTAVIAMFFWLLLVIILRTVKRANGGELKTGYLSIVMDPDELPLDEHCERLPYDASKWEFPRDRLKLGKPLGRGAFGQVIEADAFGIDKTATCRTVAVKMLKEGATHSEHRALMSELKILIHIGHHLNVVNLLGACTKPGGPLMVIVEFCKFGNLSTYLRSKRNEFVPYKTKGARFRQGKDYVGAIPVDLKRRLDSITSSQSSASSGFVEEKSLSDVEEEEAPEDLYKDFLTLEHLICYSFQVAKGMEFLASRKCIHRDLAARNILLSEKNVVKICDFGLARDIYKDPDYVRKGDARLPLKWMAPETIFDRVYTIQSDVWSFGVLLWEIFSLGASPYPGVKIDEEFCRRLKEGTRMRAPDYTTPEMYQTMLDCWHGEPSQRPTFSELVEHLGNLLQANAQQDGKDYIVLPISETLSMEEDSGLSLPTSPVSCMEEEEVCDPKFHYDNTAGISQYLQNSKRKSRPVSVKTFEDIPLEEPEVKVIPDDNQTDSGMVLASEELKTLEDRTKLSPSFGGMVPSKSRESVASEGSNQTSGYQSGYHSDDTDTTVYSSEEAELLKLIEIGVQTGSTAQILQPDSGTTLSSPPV

Macrophage colony-stimulating factor 1 receptor, sequence (P07333 whole entry, the tested form may be a part): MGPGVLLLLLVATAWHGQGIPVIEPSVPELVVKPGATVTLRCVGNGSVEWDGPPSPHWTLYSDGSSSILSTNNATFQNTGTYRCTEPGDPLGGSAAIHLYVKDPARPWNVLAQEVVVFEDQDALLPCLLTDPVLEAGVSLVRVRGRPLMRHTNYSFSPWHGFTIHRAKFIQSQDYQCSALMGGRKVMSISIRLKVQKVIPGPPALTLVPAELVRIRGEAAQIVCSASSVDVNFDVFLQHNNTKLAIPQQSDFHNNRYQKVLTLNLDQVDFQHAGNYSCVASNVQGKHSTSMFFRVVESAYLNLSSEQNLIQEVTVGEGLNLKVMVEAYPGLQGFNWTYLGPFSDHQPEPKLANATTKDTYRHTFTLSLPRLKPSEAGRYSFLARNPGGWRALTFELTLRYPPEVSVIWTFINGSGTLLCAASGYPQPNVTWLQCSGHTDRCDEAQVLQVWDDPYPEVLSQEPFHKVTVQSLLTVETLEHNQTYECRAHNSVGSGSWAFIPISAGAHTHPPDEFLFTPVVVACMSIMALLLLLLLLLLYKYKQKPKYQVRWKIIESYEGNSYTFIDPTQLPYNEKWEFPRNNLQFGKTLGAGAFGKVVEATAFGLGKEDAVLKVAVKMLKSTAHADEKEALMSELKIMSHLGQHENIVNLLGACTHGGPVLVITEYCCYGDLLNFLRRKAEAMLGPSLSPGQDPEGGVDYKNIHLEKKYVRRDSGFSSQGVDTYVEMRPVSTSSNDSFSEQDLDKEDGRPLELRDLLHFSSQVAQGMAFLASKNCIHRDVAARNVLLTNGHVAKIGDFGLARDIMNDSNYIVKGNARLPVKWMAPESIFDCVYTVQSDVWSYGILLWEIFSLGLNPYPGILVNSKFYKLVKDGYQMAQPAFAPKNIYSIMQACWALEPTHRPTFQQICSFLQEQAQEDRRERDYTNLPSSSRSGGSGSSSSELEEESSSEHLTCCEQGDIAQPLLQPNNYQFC

Row | Compound | pIC50 [1] | pIC50 [2]
1 | Cc1ccc(F)c(NC(=O)Cc2ccc(-n3c4c(c5ncnc(N)c53)COC4)cc2)c1 | 6.70 to 8.00 | < 6.70
2 | COc1ccc(NC(=O)Cc2ccc(-n3c4c(c5ncnc(N)c53)CCC4)cc2)c(F)c1 | 6.70 to 8.00 | < 6.70
3 | CC(C)(C)c1cc(NC(=O)Cc2ccc(-n3c4c(c5ncnc(N)c53)CCC4)cc2)n(-c2ccccc2)n1 | > 8.00 | > 8.00
4 | Nc1ncnc2c3c(n(-c4ccc(CC(=O)Nc5ccc(Cl)c(C(F)(F)F)c5)cc4)c12)COC3 | > 8.00 | < 6.70
5 | COc1ccc(NC(=O)Cc2ccc(-n3c4c(c5ncnc(N)c53)CCC4)cc2)cn1 | 6.70 to 8.00 | < 6.70
6 | Nc1ncnc2c3c(n(-c4ccc(CC(=O)Nc5ccc(Cl)c(C(F)(F)F)c5)cc4)c12)CCC3 | 8.05 | < 6.70
7 | Nc1ncnc2c3c(n(-c4ccc(CC(=O)Nc5ccc6c(c5)CCC6)cc4)c12)CCC3 | > 8.00 | 6.70 to 8.00
8 | Nc1ncnc2c3c(n(-c4ccc(CC(=O)Nc5nc(C(F)(F)F)cs5)cc4)c12)CCC3 | 6.70 to 8.00 | < 6.70
9 | COc1cc(-n2c3c(c4ncnc(N)c42)CCC3)ccc1CC(=O)Nc1ccnc(C(F)(F)F)c1 | > 8.00 | < 6.70
10 | COc1cc(-n2c3c(c4ncnc(N)c42)CCC3)ccc1CC(=O)Nc1ccc(Cl)c(Cl)c1 | > 8.00 | < 6.70
11 | Nc1ncnc2c3c(n(-c4ccc(CC(=O)Nc5ccc(C(F)(F)F)nc5)cc4)c12)CCC3 | 6.70 to 8.00 | < 6.70
12 | Nc1ncnc2c3c(n(-c4ccc(CC(=O)Nc5ccc(Cl)c(Cl)c5)cc4)c12)CCC3 | > 8.00 | < 6.70
13 | Nc1ncnc2c3c(n(-c4ccc(CC(=O)Nc5ccc(C(F)(F)F)nn5)cc4)c12)CCC3 | 6.70 to 8.00 | < 6.70
14 | COc1ccc(NC(=O)Cc2ccc(-n3c4c(c5ncnc(N)c53)CCC4)cc2)cc1F | > 8.00 | < 6.70
15 | Nc1ncnc2c3c(n(-c4ccc(CC(=O)N5CCOc6ccccc65)cc4)c12)CCC3 | > 8.00 | < 6.70
16 | Nc1ncnc2c3c(n(-c4ccc(CC(=O)Nc5ccc(OC(F)(F)F)cc5)cc4)c12)CCC3 | 6.70 to 8.00 | < 6.70

Row | Compound | pIC50 [1] | pIC50 [2]
17 | Nc1ncnc2c3c(n(-c4ccc(CC(=O)Nc5ccc(C(F)(F)F)c(Cl)c5)cc4)c12)CCC3 | > 8.00 | < 6.70
18 | COc1ccc(NC(=O)Cc2ccc(-n3c4c(c5ncnc(N)c53)COC4)cc2)cc1C(F)(F)F | > 8.00 | 6.70 to 8.00
19 | Nc1ncnc2c3c(n(-c4ccc(CC(=O)Nc5ccc(C(F)(F)F)cn5)cc4)c12)CCC3 | 6.70 to 8.00 | < 6.70
20 | Nc1ncnc2c3c(n(-c4ccc(CC(=O)Nc5nc(C(F)(F)F)co5)cc4)c12)CCC3 | 6.70 to 8.00 | < 6.70
21 | Nc1ncnc2c3c(n(-c4ccc(CC(=O)Nc5ccc(C(F)(F)F)cn5)cc4)c12)COC3 | 6.70 to 8.00 | < 6.70
22 | COc1ccc(NC(=O)Cc2ccc(-n3c4c(c5ncnc(N)c53)CCC4)cc2OC)cc1F | > 8.00 | < 6.70
23 | Cn1ccc2cc(NC(=O)Cc3ccc(-n4c5c(c6ncnc(N)c64)CCC5)cc3)ccc21 | > 8.00 | < 6.70
24 | Cc1ccc(F)c(NC(=O)Cc2ccc(-n3c4c(c5ncnc(N)c53)CCC4)cc2)c1 | > 8.00 | 6.70 to 8.00
25 | COc1cc(-n2c3c(c4ncnc(N)c42)CCC3)ccc1CC(=O)Nc1ccc(OC(F)(F)F)cc1 | > 8.00 | < 6.70
26 | Nc1ncnc2c3c(n(-c4ccc(CC(=O)NC5CCOCC5)cc4)c12)CCC3 | < 6.70 | < 6.70
27 | COc1cc(-n2c3c(c4ncnc(N)c42)CCC3)ccc1CC(=O)Nc1ccc(Cl)c(C(F)(F)F)c1 | > 8.00 | < 6.70
28 | COc1cc(-n2c3c(c4ncnc(N)c42)CCC3)ccc1CC(=O)Nc1ccc(OC)c(C(F)(F)F)c1 | > 8.00 | < 6.70
29 | Nc1ncnc2c3c(n(-c4ccc(CC(=O)Nc5ccnc(C(F)(F)F)c5)cc4)c12)CCC3 | 6.70 to 8.00 | 6.70 to 8.00
30 | COc1ccc(NC(=O)Cc2ccc(-n3c4c(c5ncnc(N)c53)CCC4)cc2)cc1C(F)(F)F | > 8.00 | 6.70 to 8.00
31 | COc1cc(-n2c3c(c4ncnc(N)c42)CCC3)ccc1CC(=O)Nc1cc(C(F)(F)F)ccc1F | > 8.00 | < 6.70
32 | Nc1ncnc2c3c(n(-c4ccc(CC(=O)Nc5ccc(OC(F)(F)F)cc5)cc4)c12)COC3 | 6.70 to 8.00 | < 6.70
